Data taken from PubChem BioAssay (NCI).
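Interpolation was linear, between the two tested concentrations surrounding the appropriate level; five concentrations were tested over 48 hours in 96-well plates. TGI: total growth inhibition.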

Tests used:
Assay in all cases: DTP human tumour cell line panel, 48 h
DMS 114 small cell lung = tested on: DMS 114 small cell lung
DMS 273 small cell lung = tested on: DMS 273 small cell lung
KM20L2 colon = tested on: KM20L2 colon
LXFL 529 NSCLC = tested on: LXFL 529 NSCLC
XF 498 CNS = tested on: XF 498 CNS
DLD-1 colon = tested on: DLD-1 colon
RXF-631 renal = tested on: RXF-631 renal
SNB-78 CNS = tested on: SNB-78 CNS

| SMILES | TGI (DMS 114 small cell lung) [µM] | TGI (DMS 273 small cell lung) [µM] | TGI (KM20L2 colon) [µM] | TGI (LXFL 529 NSCLC) [µM] | TGI (XF 498 CNS) [µM] | TGI (DLD-1 colon) [µM] | TGI (RXF-631 renal) [µM] | TGI (SNB-78 CNS) [µM] |
| --- | --- | --- | --- | --- | --- | --- | --- | --- |
| CC(C)C(=O)CC(c1ccc(Br)cc1)N1N=C(C(C)C)CC1c1ccc(Br)cc1 (stereo not drawn) | > 100 | > 100 | > 100 | > 100 | 59 | – | – | – |
| OC1CCSc2ccccc21 (stereo not drawn) | > 100 | > 100 | > 100 | > 100 | > 100 | > 100 | – | – |
| C=C(CN(C)C)C(=O)c1ccccc1Cl | 29.4 | 36.8 | > 60.4 | 26 | – | 36.3 | 37.8 | 83.1 |
